Measured values as given in patent US5770573A, “CS-1 peptidomimetics, compositions and methods of using the same” (Cytel Corporation, priority 1995, dated 1998).
Square brackets hold non-standard residues; d marks the D form. Peptide text beside a SMILES is read from it. * marks the point of attachment. PhAc = O=C(Cc1ccccc1)*

What was measured:
EAE in SJL/J mice = test: Experimental autoimmune encephalomyelitis in mice; assay type: in vivo; details: 1 mg/mouse i.p. at days 8 and 9; versus scrambled control compound
Procedure: EAE was induced in female SJL/J mice (8 to 14 weeks old) by immunization on day zero with 50 μg of a compound corresponding to positions 139-151 of PLP emulsified in a 1:1 mixture of PBS and complete Freund's adjuvant (CFA). Each mouse was injected with 0.2 ml of the adjuvant emulsion subcutaneously (s.c.) at two sites in the hind flank. All mice received 10^7 killed Bordetella pertussis units in 100 μl were injected intravenously 24 to 72 hours later.
Mice were observed daily, beginning at day 8 for clinical signs of EAE, and disease was scored on a scale of 0-5 as: 0=no disease; 1=floppy tail; 2=moderate hind limb weakness; 3=paraparesis; 4 =paraplegis with moderate forelimb weakness; 5 =qualdriplegis or premoribund state.
The inhibitor compound, Compound ID No. 896.52, N-phenylacetyl-Leu-Asp-Phe-D-Pro-NH2 was administered intraperitoneally at 1 mg/mouse in 0.2 ml of incomplete Freund's adjuvant at days 8 and 9. A compound having a scrambled sequence [N-phenylacetyl-Asp-Leu-Phe-D-Pro-NH2 ] was similarly administered to serve as a control.
Summed or averaged scores for clinical signs were plotted vs. time. The area under the resulting curves was calculated between day 8 and day 35 to calculate percentage inhibition of EAE by an inhibitor compound. The percent inhibition was calculated as follows:
%Inhibition=100-(Area of inhibitor compound+control area)×100

[1] = test system: delayed-type hypersensitivity murine model; test: Adoptive transfer delayed type hypersensitivity in mice (oxazolone); assay type: in vivo, mouse
Procedure: An adoptive transfer delayed-type hypersensitivity murine model has been developed using splenic T cells primed to oxazolone. This model is described in Elices et al., Clin. Exp. Rheum., 11 (Suppl. 8):577-580 (1993), whose procedures were followed here.
Thus, BALB/c mice were shaved on the belly and painted (50 μl on the belly and 5 μl on each paw) with three percent oxazolone in acetone/olive oil (4:1) at days zero and 1. At day 5, the mice were sacrificed, their spleens removed, and splenic T cells were obtained via nylon wool columns.
Normal saline or saline containing 25×10^6 /animal of the oxazolone-immune T cells were separately injected into naive mice. The mice were then challenged by painting 10 μl of 2 percent oxazolone onto one ear each. All procedures were carried out under sterile conditions and in endotoxin-free buffers.
Prior to challenge or saline injection, the mice were implanted with pumps that subcutaneously administered normal saline, normal saline containing the compound, Compound ID No. 896.52, N-phenylacetyl-Leu-Asp-Phe-D-Pro-NH2, or normal saline containing a compound with a scrambled sequence continually at 6 mg/kg/day for a 24-hour time period. The swelling diameter at the site of challenge or saline injection was measured with a microcaliper 24 hours thereafter.
An expanded study was carried out as described above except that a scrambled compound control was not used as a control for further inhibitor compounds of Table 1 with larger groups of mice. Statistical analyses were carried out versus injection of vehicle alone.

asthmatic sheep = test: Treatment of asthmatic sheep (Ascaris suum antigen); assay type: in vivo
Procedure: Six asthmatic sheep were treated in a double blind cross-over study. […] This study was carried out generally as described in Abraham et al., J. Clin. Invest., 93:776-787 (1994).
The inhibitor compound used here was Compound ID No. 896.52, N-phenylacetyl-Leu-Asp-Phe-D-Pro-NH2, with a control compound that comprised the previously described compound having the same residues in a scrambled sequence. The vehicle for the nebulized compounds was phosphate-buffered saline. The compounds were administered at a dose of 1 mg/kg each, twice a day for three days prior to challenge, as well as 0.5 hours prior to and four hours post challenge on day 4. Because this was a crossover study, each animal received one or the other treatment, followed by a rest and then the other treatment. Each animal therefore served as its own control.
Post challenge airway responsiveness was also assayed. Here, specific lung resistance, SRL, returned to baseline values 24 hours after challenge, however, the sheep were hyperresponsive to inhaled carbachol at that time.

Jurkat cells = test: Binding of Jurkat cells to frozen human RA synovial sections; assay type: cell-based; details: 500 μg/ml
Procedure: Binding studies were carried out using the Jurkat T cell line and frozen RA synovial sections. […] Stimulated MOLT-4 cells behaved similarly.
The absolute value of that IC50 value is about 0.5 μmolar.

immune T cells = details: about 50 μg/ml admixed with immune T cells; cited from earlier work
[2] = test system: rabbit cardiac allograft coronary arteries; test: Rabbit cardiac allograft model; assay type: in vivo; for Expression on Coronary Arteries: ICAM-1: key: -: negative; ±: minimal; +: little; ++: moderately abundant; +++: very abundant; for Expression on Coronary Arteries: Macrophages: key: -: negative; ±: minimal; +: little; ++: moderately abundant; +++: very abundant; for Expression on Coronary Arteries: T cells: key: -: negative; ±: minimal; +: little; ++: moderately abundant; +++: very abundant; for Expression on Coronary Arteries: Total Fibronectin: key: -: negative; ±: minimal; +: little; ++: moderately abundant; +++: very abundant
Excerpt: New Zealand white rabbit SPF hearts were allografted into the necks of similar rabbits to assay a graft-vs-host immunorejection model and the affect of a contemplated compound on that immunoinflammatory response.
Experimental animal model New Zealand white female rabbits (Charles River Lab., Saint Laurent, Quebec), between 3.5 and 4 kg underwent heterotopic cardiac transplant following an experimental protocol previously described [Alonso et al., Am. J. Pathol., 87:415-442 (1977); Clausell et al., Circulation, 89:2768-2779 (1994)]. The animals were unselected to favor an HLA-mismatch, the host rabbits were Pasteurella-free and the donors, outbred animals. Both host and donor rabbits were fed Purina 5321-0.5 percent cholesterol diet (Research Diets Inc., New Brunswick, N.J.), a strategy that has proven useful in accelerating the process of allograft arteriopathy [Alonso et al., Am. J. Pathol., 87:415-442 (1977)]. The diet was commenced four days prior to the transplant and continued in the recipient of the transplant until the completion of the experimental period.
The technique of heterotopic cardiac transplantation has been previously described [Clausell et al., Circulation, 89:2768-2779 (1994)]. Briefly, a vertical incision was performed in the anterior aspect of the neck of the recipient rabbit and the left common carotid artery and the ipsilateral external jugular vein were isolated. The cardiac allograft was placed in the neck by anastomosing the aorta end-to-side to the recipient's carotid artery and the pulmonary end-to-side to the recipient's external jugular vein, following a total period of ischemia for the donor hearts of approximately 30 minutes. Postoperative care was in compliance with the Principles of Laboratory Animal Care formulated by the Canadian National Society for Medical Research.
Beginning the day of the transplant, the animals were randomized and treated with either scrambled compound (control group) at 1 mg/kg s.c. or the inhibitor compound at 1 mg/kg s.c. The doses of the compounds were empirically extrapolated to the in vivo model based on preliminary in vitro studies, of Table 1. No other immunosuppression therapy was administered. The grafts were monitored daily by palpation and maintained for 7 to 8 days, a previously described endpoint that was associated with myocardial rejection (impaired cardiac contractility) and development of the allograft arteriopathy in this model [Clausell et al., Circulation, 89:2768-2779 (1994)]. A total of fourteen animals were studied in the control (n=7) and treated (n=7) groups.
Preparation of the hearts The animals were sacrificed using a lethal dose of euthanol (480 mg i.v.) (MTC Pharmaceutical, Cambridge, Oreg.), host and donor hearts were removed, and the coronary arteries were perfused with saline through the aorta, followed by light fixation by perfusion with 2 percent paraformaldehyde (Sigma, St, Louis, Mo.). […] Different sections of the hearts were either saved in 10 percent formalin (BDH Inc., Toronto, ON) for light microscopy studies or immediately frozen in O.T.C. Compound Tissue Tek (Miles Inc., Elkart, In.) for specific immunohistochemistry studies.
Three different paraffin-embedded tissue sections from host and donor hearts from both control and treated rabbits were stained by the Movat pentachrome method for light microscopy. Morphometric analysis was performed using a Zeiss microscope attached to a computer-generated video analysis system (Perceptics Inc., NuVision software), as described in Clausell et al., Circulation, 89:2768-2779 (1994). The number of vessels with intimal lesions were counted in all three heart sections from each animal studied and are expressed as a percentage of the total vessel number.
In the host hearts, 999 vessels in the control group and 1054 vessels in the treated group were analyzed. In the donor hearts, 827 vessels in the control group and 617 vessels in the treated group were analyzed. […]

[3] = Loss of potency in PBS containing 10 percent mouse or human serum; details: PBS at 7.2-7.4 with 10 percent mouse or human serum; 24 hours
VLA-4 = VLA-4 (Homo sapiens, UniProt P05556+P13612); details: cited from earlier work
Sequence of VLA-4 (P13612 34-1032): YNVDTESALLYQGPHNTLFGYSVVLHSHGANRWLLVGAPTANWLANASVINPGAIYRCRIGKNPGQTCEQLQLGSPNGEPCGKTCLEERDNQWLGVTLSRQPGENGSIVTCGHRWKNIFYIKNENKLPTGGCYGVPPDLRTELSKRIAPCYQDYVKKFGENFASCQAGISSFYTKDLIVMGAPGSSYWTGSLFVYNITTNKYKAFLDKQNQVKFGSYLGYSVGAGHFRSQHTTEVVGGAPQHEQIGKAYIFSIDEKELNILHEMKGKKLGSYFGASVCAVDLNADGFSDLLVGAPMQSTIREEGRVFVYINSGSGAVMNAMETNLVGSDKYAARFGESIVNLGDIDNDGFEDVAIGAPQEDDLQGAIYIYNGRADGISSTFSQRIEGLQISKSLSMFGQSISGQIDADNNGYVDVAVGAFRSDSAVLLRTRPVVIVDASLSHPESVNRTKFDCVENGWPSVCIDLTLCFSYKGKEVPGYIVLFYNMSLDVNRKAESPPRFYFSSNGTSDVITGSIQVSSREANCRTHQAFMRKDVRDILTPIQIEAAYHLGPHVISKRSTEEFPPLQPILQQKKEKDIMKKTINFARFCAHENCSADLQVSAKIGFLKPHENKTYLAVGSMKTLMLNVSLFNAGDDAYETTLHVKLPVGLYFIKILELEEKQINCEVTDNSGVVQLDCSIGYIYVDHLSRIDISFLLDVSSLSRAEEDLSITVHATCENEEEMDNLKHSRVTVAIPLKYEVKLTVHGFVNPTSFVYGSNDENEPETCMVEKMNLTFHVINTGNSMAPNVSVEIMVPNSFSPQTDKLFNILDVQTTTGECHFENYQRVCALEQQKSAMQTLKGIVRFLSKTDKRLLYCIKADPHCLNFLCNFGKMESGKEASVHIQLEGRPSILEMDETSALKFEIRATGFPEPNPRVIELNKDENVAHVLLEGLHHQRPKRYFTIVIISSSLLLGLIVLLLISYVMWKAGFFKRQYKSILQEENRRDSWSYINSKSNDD
Sequence of VLA-4 (P05556 21-798): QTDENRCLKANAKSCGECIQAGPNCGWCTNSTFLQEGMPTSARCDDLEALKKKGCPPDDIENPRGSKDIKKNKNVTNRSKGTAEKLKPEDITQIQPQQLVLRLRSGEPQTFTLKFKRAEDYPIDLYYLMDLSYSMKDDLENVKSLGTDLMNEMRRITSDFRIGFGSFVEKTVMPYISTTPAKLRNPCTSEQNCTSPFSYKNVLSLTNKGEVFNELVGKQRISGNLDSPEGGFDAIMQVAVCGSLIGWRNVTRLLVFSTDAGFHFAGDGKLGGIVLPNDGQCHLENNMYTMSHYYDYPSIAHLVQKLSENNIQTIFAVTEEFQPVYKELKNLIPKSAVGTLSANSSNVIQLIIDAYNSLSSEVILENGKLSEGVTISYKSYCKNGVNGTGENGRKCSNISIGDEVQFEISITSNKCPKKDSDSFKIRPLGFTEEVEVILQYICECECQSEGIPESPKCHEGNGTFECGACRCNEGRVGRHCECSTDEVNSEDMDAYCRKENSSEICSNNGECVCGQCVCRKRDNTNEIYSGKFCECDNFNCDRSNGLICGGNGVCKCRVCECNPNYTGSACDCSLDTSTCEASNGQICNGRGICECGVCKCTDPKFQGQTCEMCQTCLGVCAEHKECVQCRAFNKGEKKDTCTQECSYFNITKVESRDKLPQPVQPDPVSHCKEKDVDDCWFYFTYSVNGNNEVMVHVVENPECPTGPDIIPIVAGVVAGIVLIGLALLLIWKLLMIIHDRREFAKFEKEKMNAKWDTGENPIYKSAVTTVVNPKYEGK

## CC(C)C[C@H](NC(=O)Cc1ccccc1)C(=O)N[C@@H](CC(=O)O)C(=O)N[C@@H](Cc1ccccc1)C(=O)N1CCC[C@@H]1C(N)=O [896.52] (PhAc-LDF[dP]-NH2)
EAE in SJL/J mice
  clinical signs of EAE (FIG. 6): marked improvement in clinical signs
[1]; 6 mg/kg/day s.c. by implanted pump for 24 hours, versus saline
  swelling at challenge site (initial study, FIG. 5): reduced this type of CS-1/VLA-4-mediated immunoinflammation
[1]; expanded study, versus vehicle alone, 6 mg/kg/day s.c. pump, 24 hours
  Percent Inhibition of post-challenge swelling: 36%
Asthmatic sheep; 24 hours after challenge, pre-challenge about 20-23 BU
  PC400, carbachol dosage to increase SRL 4-fold: about 27 BU
Asthmatic sheep; nebulized 1 mg/kg twice a day, versus control compound
  specific lung resistance SRL after challenge (FIG. 7): less of a change from baseline specific lung resistance (SRL)

## CC[C@H](C)[C@H](NC(=O)[C@H](CCC(=O)O)NC(=O)[C@@H]1CCCN1C(=O)CN)C(=O)N[C@@H](CC(C)C)C(=O)N[C@@H](CC(=O)O)C(=O)N[C@H](C(=O)N1CCC[C@H]1C(=O)N[C@@H](CO)C(=O)N[C@H](C(=O)O)[C@@H](C)O)C(C)C [Compound ID No. 872.01, GPEILDVPST] (H-GPEILDVPST-OH)
Jurkat cells
  inhibition of Jurkat cell adhesion to RA synovial sections: could be inhibited
Immune T cells
  abrogation of transferred immune response: could abrogate a transferred immune response

## CC(C)C[C@H](NC(=O)Cc1ccccc1)C(=O)N[C@@H](CC(=O)O)C(=O)N[C@@H](Cc1ccccc1)C(=O)N1CCC[C@@H]1C(N)=O [Compound ID No. 896.52, N-phenylacetyl-Leu-Asp-Phe-D-Pro-NH2] (PhAc-LDF[dP]-NH2)
[2]; 1 mg/kg s.c., 7 to 8 days
  Expression on Coronary Arteries: ICAM-1: ±
  Expression on Coronary Arteries: Macrophages: ±
  Expression on Coronary Arteries: T cells: ±
  Expression on Coronary Arteries: Total Fibronectin: ±
  Expression on Coronary Arteries: VCAM-1: ±
[2]; 1 mg/kg s.c., 7 to 8 days, immunoperoxidase score
  Expression on Coronary Arteries: MHC Class II: ±
[2]; donor hearts, 1 mg/kg s.c.
  Vessel Intimal Thickening: Percent of Vessels: 35%
  Vessel Intimal Thickening: Severity (Percent of Vessel area): 16%
[2]; host heart
  Baseline (rabbit own host heart) of incidence: 12%
  Baseline (rabbit own host heart) of severity: 12%
[3]
  loss of potency in serum: no loss of potency

## Leu-Asp-Val [LDV]
VLA-4
  affinity of VLA-4 binding relative to native CS-1 25-mer: at least two orders of magnitude lower affinity
